Test: solvent given as SMILES

CCCCCCCCCCO
Conditions | solvation free energy, 298 K [kcal/mol]
in CC(C)O | -9.77
in CCCCCC | -7.69
in CCCCCCCC | -7.87
in CCCCCCCCCO | -9.64
in CCCO | -9.73
in O | -3.69

CC(C)C(=O)C(C)C
Conditions | solvation free energy, 298 K [kcal/mol]
in O | -2.56

CC1CCC2=C1CC1CCC2(C)C1(C)C (stereo not given)
Conditions | solvation free energy, 298 K [kcal/mol]
in O | 0.78

COc1cc(Cl)c(Cl)c(Cl)c1Cl
Conditions | solvation free energy, 298 K [kcal/mol]
in O | -2.55

CC1CCC(C)O1 (stereo not given)
Conditions | solvation free energy, 298 K [kcal/mol]
in O | -2.92

COC(=O)c1ccc(I)cc1
Conditions | solvation free energy, 298 K [kcal/mol]
in CN(C)C=O | -10.7
in O | -5.09

ClC(Cl)Cl
Conditions | solvation free energy, 298 K [kcal/mol]
in Brc1cccc2ccccc12 | -3.79
in C1CCCC1 | -3.87
in C1CCOC1 | -5.13
in C1COCCO1 | -4.64
in C=CCCCCCCCCCCCCCC | -3.42
in CC#N | -4.31
in CC(=O)CC(C)C | -4.51
in CC(=O)N(C)C | -5.18
in CC(=O)OCc1ccccc1 | -4.25
in CC(C)=O | -4.67
in CCC(C)=O | -4.72
in CCCCCCC | -3.62
in CCCCCCCC | -3.52
in CCCCCCCCC=CCCCCCCCC(=O)OCC(COC(=O)CCCCCCCC=CCCCCCCCC)OC(=O)CCCCCCCC=CCCCCCCCC | -4.02
in CCCCCCCCCCCCCC | -3.35
in CCCCCCCCCCCCCCCC | -3.38
in CCCCCCCCCCCCO | -3.65
in CCCCCCCCN(CCCCCCCC)CCCCCCCC | -3.59
in CCCCCCCCO | -3.8
in CCCCCN(CCCCC)CCCCC | -3.82
in CCCCCl | -4.08
in CCCCN(C=O)CCCC | -4.83
in CCCCN(CCCC)CCCC | -3.69
in CCCCO | -4.02
in CCCCOCCCC | -4.16
in CCN(CC)C(C)=O | -5.18
in CCNC(C)=O | -4.57
in CCNC=O | -4.41
in CCO | -4.12
in CCOC(=O)c1ccccc1C(=O)OCC | -4.1
in CCOC(C)=O | -4.61
in CN1CCCC1=O | -5.24
in CN1CCCCC1=O | -5.27
in CNC(C)=O | -4.57
in CO | -4.12
in COC(C)=O | -4.67
in COCOC | -4.27
in CS(C)=O | -4.72
in ClC(Cl)(Cl)Cl | -4
in ClCCCl | -4.17
in NC=O | -2.91
in O | -1.08
in O=C1CCCCC1 | -4.73
in S=C=S | -4.15
in [2H]O[2H] | -1.26
in c1ccc2ncccc2c1 | -4.41

CC(C)=CCCC(C)C1C=CC(C)=CC1 (stereo not given)
Conditions | solvation free energy, 298 K [kcal/mol]
in O | -0.11

CCCCCCCCCCCCCCCO
Conditions | solvation free energy, 298 K [kcal/mol]
in CCCCOCCCC | -12.4
in O | -2.92

FC(C(F)(F)F)C(F)(F)F
Conditions | solvation free energy, 298 K [kcal/mol]
in CCCCCCCCO | -1.12
in CN1CCCC1=O | -0.6
in O | 2.01

C#CC=C
Conditions | solvation free energy, 298 K [kcal/mol]
in C1COCCO1 | -3.21
in CC(C)=O | -3.19
in CC(C)CC(C)(C)C | -2.21
in CN(C)C=O | -3.28
in COC(C)=O | -3.19
in Cc1ccc(C)cc1 | -3.07
in O | 0.04

Oc1ccccc1Cl
Conditions | solvation free energy, 298 K [kcal/mol]
in CC(C)CC(C)(C)C | -5.44
in CCCCCC | -5.72
in CCCCCCC | -5.71
in CCCCCCCC | -5.67
in CCCCCCCCCC | -5.63
in Cc1ccc(C)cc1 | -6.37
in Cc1cccc(C)c1 | -6.42
in Cc1ccccc1C | -6.41
in O | -4.56

CC=Cc1ccc(O)c(OC)c1
Conditions | solvation free energy, 298 K [kcal/mol]
in O | -6.33

Cc1ccc(N(O)C(=O)c2ccccc2C)cc1
Conditions | solvation free energy, 298 K [kcal/mol]
in O | -11.5

O=C1c2ccccc2-c2ccccc21
Conditions | solvation free energy, 298 K [kcal/mol]
in CC(C)(C)O | -10.4
in CC(C)CC(C)(C)C | -9.57
in CC(C)CCO | -10.5
in CC(C)CO | -10.3
in CC(C)O | -10.4
in CC(C)OC(C)C | -10.5
in CCC(C)O | -10.5
in CCCCC(CC)CO | -10.5
in CCCCCC | -9.78
in CCCCCCC | -9.83
in CCCCCCCC | -9.86
in CCCCCCCCC=CCCCCCCCC(=O)OCC(COC(=O)CCCCCCCC=CCCCCCCCC)OC(=O)CCCCCCCC=CCCCCCCCC | -10.5
in CCCCCCCCCC | -9.9
in CCCCCCCCCCO | -10.6
in CCCCCCCCO | -10.7
in CCCCCCCO | -10.7
in CCCCCCO | -10.6
in CCCCCO | -10.6
in CCCCO | -10.6
in CCCO | -10.6
in CCO | -10.6
in CO | -10.6
in COC(C)(C)C | -11
in ClC(Cl)(Cl)Cl | -11.5
in ClCCl | -12
in Fc1ccccc1 | -11.7
in O | -5.78

CCOC(C)(C)CC
Conditions | solvation free energy, 298 K [kcal/mol]
in O | -1.5

CCCCCCCCCCCCCCCCO
Conditions | solvation free energy, 298 K [kcal/mol]
in CC(C)O | -13.7
in CCC(C)=O | -13.8
in CCCCCCCCC=CCCCCCCCC(=O)OCC(COC(=O)CCCCCCCC=CCCCCCCCC)OC(=O)CCCCCCCC=CCCCCCCCC | -11.6
in CCCCCCCCCCO | -13.4
in CCCCCCCCO | -13.5
in CCCCCCO | -13.6
in CCCCOCCCC | -13.1
in CCOCC | -13.5
in O | -2.76

O=C(O)C=Cc1ccccc1
Conditions | solvation free energy, 298 K [kcal/mol]
in O | -8.38

CCCc1ccc(O)c(OC)c1
Conditions | solvation free energy, 298 K [kcal/mol]
in O | -5.26

FC(F)(F)Br
Conditions | solvation free energy, 298 K [kcal/mol]
in O | 1.79

CS
Conditions | solvation free energy, 298 K [kcal/mol]
in O | -1.18

COC(=O)c1cccc([N+](=O)[O-])c1
Conditions | solvation free energy, 298 K [kcal/mol]
in CN(C)C=O | -10.8
in O | -6.79

Cc1cccc(C(=O)O)c1
Conditions | solvation free energy, 298 K [kcal/mol]
in C1CCOC1 | -10.5
in C1COCCO1 | -10.1
in CC(C)(C)O | -10.2
in CC(C)CC(C)O | -10
in CC(C)CCO | -9.93
in CC(C)CO | -9.91
in CC(C)O | -10.1
in CC(C)OCCO | -10.1
in CC(O)COC(C)(C)C | -9.97
in CCC(C)CO | -9.88
in CCC(C)O | -10.1
in CCCC(C)CO | -9.89
in CCCC(C)O | -10
in CCCCCCCCCCO | -9.65
in CCCCCCCCO | -9.87
in CCCCCCCO | -9.91
in CCCCCCO | -9.94
in CCCCCO | -9.99
in CCCCO | -10
in CCCCOC(C)=O | -9.69
in CCCCOCCO | -10
in CCCO | -10.3
in CCCOCCO | -10.1
in CCO | -10.2
in CCOC(C)=O | -9.9
in CCOCC | -10
in CCOCCO | -10.1
in CO | -10.3
in COC(C)=O | -9.99
in COC(C)CCO | -10.1
in O | -6.79

CC(C)=CCCC(C)CCCC(C)CCCC(C)C (stereo not given)
Conditions | solvation free energy, 298 K [kcal/mol]
in O | 3.72

O=C1OC(C(O)CO)C(O)=C1O (stereo not given)
Conditions | solvation free energy, 298 K [kcal/mol]
in CCCO | -17.2
in CCO | -17.7

CC(C)(C)CCO
Conditions | solvation free energy, 298 K [kcal/mol]
in CCCCCCCC | -4.85
in CCCCCCCCCC | -4.72

COCOC
Conditions | solvation free energy, 298 K [kcal/mol]
in ClC(Cl)(Cl)Cl | -3.66
in ClC(Cl)Cl | -3.99
in O | -2.95
in S=C=S | -3.28

CCCCCCCCN
Conditions | solvation free energy, 298 K [kcal/mol]
in CCCCCCC | -6.96
in O | -3.73

CC1CCCCC1
Conditions | solvation free energy, 298 K [kcal/mol]
in C1CCOC1 | -4.67
in C1COCCO1 | -4.09
in CC1CCS(=O)(=O)C1 | -3
in CC#N | -3.28
in CC(=O)N(C)C | -3.68
in CC(C)=O | -3.93
in CC(C)CCCC(C)CCCC(C)CCCCC(C)CCCC(C)CCCC(C)C | -4.3
in CC(C)O | -3.79
in CCC#N | -4.07
in CCC(C)=O | -4.12
in CCCC#N | -3.63
in CCCCC(CC)COC(=O)c1ccccc1C(=O)OCC(CC)CCCC | -3.99
in CCCCCCC | -4.79
in CCCCCCCCC=CCCCCCCCC(=O)OCC(COC(=O)CCCCCCCC=CCCCCCCCC)OC(=O)CCCCCCCC=CCCCCCCCC | -4.26
in CCCCCCCCCC | -4.57
in CCCCCCCO | -4.16
in CCCCN(C=O)CCCC | -4.05
in CCCCOC(=O)c1ccccc1C(=O)OCCCC | -4.11
in CCOC(=O)c1ccccc1C(=O)OCC | -3.59
in CN1CCCC1=O | -3.59
in CN1CCCCC1=O | -3.72
in CN(C)C=O | -3.52
in CNC(C)=O | -3.59
in CNC=O | -3.18
in COC(C)(C)C | -4.8
in COCCO | -3.47
in CS(C)=O | -2.73
in NC=O | -1.42
in Nc1ccccc1 | -3.29
in O | 1.7
in O=C1CCCO1 | -3
in O=CN1CCOCC1 | -2.94
in OCCCCCO | -2.87
in OCCCCO | -2.77
in OCCCO | -2.39
in OCCO | -1.58
in OCCOCCO | -2.38
in OCCOCCOCCO | -2.44
in OCCOCCOCCOCCO | -2.55
in OCCS | -2.82

CN(C)C(=O)c1ccccc1
Conditions | solvation free energy, 298 K [kcal/mol]
in O | -9.29

CCCCCCCCC=CCCCCCCCC(=O)OC
Conditions | solvation free energy, 298 K [kcal/mol]
in O | -2.13

C=C(C)C1CCC2=CCCC(C)C2(C)C1 (stereo not given)
Conditions | solvation free energy, 298 K [kcal/mol]
in O | -0.15

Source: the CombiSolv-Exp solvation set (Vermeire and Green 2021)
